Counter-ions that a name gives are not always drawn.
Experiments:
[1] = tested on: dopamine release in the striatum/nucleus accumbens; settings: striatal microdialysis, literature reports; cited from earlier work
[2] = tested on: dopamine release in the cortex; settings: literature reports; cited from earlier work
[3] = tested on: dopamine release in the nucleus accumbens; assay: in vivo microdialysis in freely moving rats, dopamine efflux in nucleus accumbens; settings: for dopamine release in the nucleus accumbens: basal conditions, IP administration, monitored 210 minutes
Experimental: To determine whether irdabisant (or pharmaceutically acceptable salt thereof, such as irdabisant hydrochloride) leads to dopamine release in the nucleus accumbens under basal conditions similar to those in which pitolisant, ABT-239 and JNJ-39220675 were tested and found to have no effect, in vivo microdialysis was performed in freely moving rats. Dopamine levels were monitored for 210 minutes following compound administration. Irdabisant hydrochloride was administered intraperitoneally (IP) at 0.001, 0.01, 0.3 and 10 mg/kg for 30 minutes following an IP vehicle (0.5% methylcellulose and 0.2% Tween 80) injection.
Male Sprague-Dawley albino rats weighing 250 to 350 g were housed two per cage and maintained in a controlled 12:12-h light/dark cycle and under constant temperature at 22° C., with free access to food and water. Rats were anesthetized with the modified Equithesin mixture (see, e.g., Li et al., Neuropsychopharm., 30, 1986-1995, 2005) and mounted in a stereotaxic frame. Stainless guide cannula with a dummy probe were placed and fixed by cranioplastic cement onto the cortex dorsal both to the medial prefrontal cortex (mPFC) and the nucleus accumbens (NAC). Rats received dual probe implantation for the mPFC and NAC (coordinates: A+3.2, L+0.8 (10° C. inclination), V-5.5 mm and A+2.0, L+1.5 to +1.7, V-7.5 mm, respectively, relative to bregma). Three to five days after cannulation, a dialysis probe was implanted into the mPFC and NAC under slight anesthesia with isoflurane. Rats were then housed individually overnight in a dialysis cage and the probes perfused with Dulbecco's phosphate-buffered saline solution with calcium (Sigma, St. Louis, MO) (138 mM NaCl, 8.1 mM Na2HPO4, 2.7 mM KCl, 1.5 mM KH2PO4, 0.5 mM MgCl2, 1.2 mM CaCl2), pH 7.4) at a rate of 0.4 μL/min. On the day of the experiment, the flow was increased to 1.5 μL/min. Sample collection began one hour later, and samples were collected every 30 min. After 60 min of stable baseline, each rat was dosed twice (indicated by arrows in FIG. 1-4); a vehicle dose at t=0 min., followed 30 minutes later by a dose of irdabisant hydrochloride. Dopamine (DA) and acetylcholine (Ach) samples, measured in the absence of cholinesterase inhibition, were monitored with HPLC coupled to mass spectrometry.
Data are presented as percentages of baseline from baseline to 180 minutes after treatment. Mean baseline levels (i.e., an average of 60, 30, and 0 minutes before injection) of DA and ACh in the mPFC and NAC were designated as 100%. Non-transformed data were analyzed at each dose by assessing the change relative to the mean baseline using a one-way repeated measures ANOVA followed by a Bonferroni's post-hoc test as implemented in the SigmaPlot version 11.0.0.77 statistical package (Systat Software, Inc., San Jose CA).

[4] = cited from earlier work
[5] = oral, after dosing; cited from earlier work

Q: With `C[C@@H]1CCCN1CCc1cc2cc(-c3ccc(C#N)cc3)ccc2o1` [ABT-239, (R)-4-(2-(2-(2-methyl-|-pyrrolidinyl)ethyl)-1-benzofuran-5-yl)benzonitrile] as the molecule, how does the “dopamine release in the nucleus accumbens” value [1] read?
A: Its value is “lack of effect on dopamine release”.

Q: For `C(#Cc1ccc(CN2CCOCC2)cc1)CCN1CCCCC1.Cl.Cl` [JNJ-10181457], which “dopamine release in the cortex” value [2] is on record?
A: The value was “do not”.

Q: With `O=C(c1ccc(Oc2ccc(F)cc2)nc1)N1CCCN(C2CCC2)CC1` [JNJ-39220675, (4-cyclobutyl-1,4-diazepan-1-yl) (6-(4-fluorophenoxy)pyridin3-yl) methanone] as the molecule, how does the “dopamine release in the nucleus accumbens” value [1] read?
A: Its value is “lack of effect on dopamine release”.

Q: Which “elevation in dopamine levels relative to baseline” value ([3]; 0.01 mg/kg dose, 180 minutes post-dose, p=0.005, overall p<0.001) does the source give for `C[C@@H]1CCCN1CCCOc1ccc(-c2ccc(=O)[nH]n2)cc1` [irdabisant hydrochloride] here?
A: Its value is “statistically significant elevation in dopamine levels”.

Q: What about the “elevation in dopamine levels relative to baseline” value ([3]; 0.3 mg/kg dose, 90 minute time point, p=0.02, overall p=0.003) of the same molecule?
A: Its value is “significance”.

Q: And the “maximal effect on nucleus accumbens dopamine efflux” value ([3]; 10 mg/kg IP dose)?
A: The value was 205.6±6.86 % over basal.

Q: And the “elevation in dopamine levels relative to baseline” value ([3]; 10 mg/kg dose, 60, 90, 120 and 150 minute time points, overall p<0.001)?
A: The value was “significance was achieved”.

Q: What about the “threshold dose for nucleus accumbens dopamine efflux” value ([3]; IP) of the same molecule?
A: Its value is 0.01 mg/kg.

Q: And the “dopamine release in the nucleus accumbens” value [3]?
A: The value was “increased dopamine release was observed”.

Q: For `C[C@@H]1CCCN1CCCOc1ccc(-c2ccc(=O)[nH]n2)cc1` [irdabisant, 6-{4-[3-((R)-2-methyl-pyrrolidin-1-yl)-propoxy]-phenyl}-2H-pyridazin-3-one], which “dopamine release in the nucleus accumbens” value [3] is on record?
A: The value was “increases dopamine release”.

Q: What about the “change over placebo on BL-VAS subscales” value ([4]; Baakman et al. 2019) of the same molecule?
A: The value was “increasing scores on BL-VAS alertness and contentedness/mood subscales”.

Q: And the “subjective experiences and cognitive effects” value ([4]; healthy participants, after a single dose)?
A: Its value is “promote positive subjective experiences and cognitive effects”.

Q: What about the Tmax [5] of the same molecule?
A: Its Tmax is “approximately 5 hours”.

Q: For `Clc1ccc(CCCOCCCN2CCCCC2)cc1` [pitolisant], which “dopamine release in the nucleus accumbens” value [1] is on record?
A: The value was “no increase in release of dopamine release”.
